Data as given in US20120065066A1, “NOVEL HERBICIDES” (SYNGENTA CROP PROTECTION LLC, priority 2009, published 2012).

Assays:
Assay type in all cases: in vivo
Details in all cases: 312 h, evaluated after 13 days, 100=total damage to plant, 0=no damage to plant
Avena fatua (AVEFA) [1] = test: Test Example B, pre-emergence herbicidal test
Experimental: (§1) Seeds of a variety of test species were sown in standard soil in pots. After cultivation for one day (pre-emergence) or after 8 days cultivation (post-emergence) under controlled conditions in a glasshouse (at 24/16° C., day/night; 14 hours light; 65% humidity), the plants were sprayed with an aqueous spray solution derived from the formulation of the technical active ingredient in acetone/water (50:50) solution containing 0.5% Tween 20 (polyoxyethelyene sorbitan monolaurate, CAS RN 9005-64-5). The test plants were then grown in a glasshouse under controlled conditions in a glasshouse (at 24/16° C., day/night; 14 hours light; 65% humidity) and watered twice daily. After 13 days for pre and post-emergence, the test was evaluated (100=total damage to plant; 0=no damage to plant). Test Plants: Setaria faberi (SETFA), Alopecurus myosuroides (ALOMY), Echinochloa crus-galli (ECHCG), and Avena fatua (AVEFA).

[2] = test system: Alopecurus myosuroides (ALOMY); test: Test Example B, pre-emergence herbicidal test
Experimental: as §1

[3] = test system: Echinochloa crus-galli (ECHCG); test: Test Example B, pre-emergence herbicidal test
Experimental: as §1

Avena fatua (AVEFA) [4] = test: Test Example B, post-emergence herbicidal test
Experimental: as §1

[5] = test system: Alopecurus myosuroides (ALOMY); test: Test Example B, post-emergence herbicidal test
Experimental: as §1

[6] = test system: Echinochloa crus-galli (ECHCG); test: Test Example B, post-emergence herbicidal test
Experimental: as §1

Structure (SMILES)	pest or weed control at 250 g/ha (Avena fatua (AVEFA) [1])	pest or weed control at 250 g/ha [2]	pest or weed control at 250 g/ha [3]	pest or weed control at 250 g/ha (Avena fatua (AVEFA) [4])	pest or weed control at 250 g/ha [5]	pest or weed control at 250 g/ha [6]
CCc1ccc(-c2ccc(Cl)cc2)cc1C1=C(O)[C@H]2[C@H]3CC[C@H](CC3)[C@H]2C1=O (racemic) [Compound T3, rac-(3aR,7aS)-2-(4′-chloro-4-ethylbiphenyl-3-yl)hexahydro-4,7-ethanoindene-1,3-dione]	70%	70%	100%	90%	100%	100%
CCc1ccc(-c2ccc(Cl)c(OC)c2)cc1C1=C(O)[C@H]2[C@H]3CC[C@H](CC3)[C@H]2C1=O [Compound T14]	70%	80%	100%	0%	0%	90%
CCc1ccc(-c2ccc(Cl)c(F)c2)cc1C1=C(O)[C@H]2[C@H]3CC[C@H](C3)[C@H]2C1=O [Compound T35]	70%	80%	90%	90%	90%	90%
CCc1ccc(-c2c(F)cc(Cl)cc2Cl)cc1C1=C(O)[C@H]2[C@H]3CC[C@H](C3)[C@H]2C1=O [Compound T38]	0%	0%	80%	40%	30%	90%
CCc1ccc(-c2ccc(Cl)c(C(F)(F)F)c2)cc1C1=C(O)[C@H]2[C@H]3CC[C@H](CC3)[C@H]2C1=O [Compound T16]	20%	60%	100%	0%	0%	30%
CCc1ccc(-c2ccc(F)cc2)cc1C1=C(O)[C@H]2[C@H]3CC[C@H](CC3)[C@H]2C1=O [Compound T46]	0%	20%	80%	30%	50%	100%
CCc1ccc(-c2ccc(Cl)c(F)c2F)cc1C1=C(O)[C@H]2[C@H]3CC[C@H](CC3)[C@H]2C1=O [Compound T44]	20%	0%	70%	80%	90%	100%
CCc1ccc(-c2cc(Cl)sc2Cl)cc1C1=C(O)[C@H]2[C@H]3CC[C@H](CC3)[C@H]2C1=O [Compound T15]	0%	0%	30%	30%	40%	80%
CCc1ccc(-c2ccc(Cl)cc2C)cc1C1=C(O)[C@H]2[C@H]3CC[C@H](CC3)[C@H]2C1=O [Compound T12]	20%	60%	100%	40%	90%	100%
